Source: patent publication US6994981B2, “Modulators of paraptosis and related methods” (The Buck Institute, priority 2002, dated 2006)

Key:
[1] = tested on: 293T cells transfected with NK1R; assay: SP-induced, NK1R-mediated cell death in 293T cells transfected with NK1R, trypan blue and staining; type: cell-based, human
Procedure: (§1) Human embryonic kidney 293T cells were grown as described in Example I. Transient transfection was performed using Superfect (Qiagen) as described by the manufacturer. Briefly, 2×10^5 cells/well were seeded into 35 mm wells 16 hr prior to transfection. Superfect:DNA complexes were added at a 5 μl:2 μg ratio for 3 hr; then the medium was replaced and after 24 hr SP was added. At 24–48 hr after addition of SP cell death was quantified as follows: the media containing floating cells were collected and centrifuged 10 min at 2000×g, the pellet was resuspended in PBS/trypan blue and the cells were counted using a hematocytometer. When other compounds were used, they were added at the same time as SP: zVAD.fmk or BAF was added at 50 μM and obtained from Enzyme System Products, Livermore, Calif.
Briefly, the method entailed cloning the full-length (1.2 kb) NK1R cDNA (Genbank Accession No. M31477) by RT-PCR from adult rat hippocampal RNA into the XbaI/EcoRI sites of the vector pcDNA3.1 (Invitrogen), using the following oligonucleotides: forward 5′[…] 3′ (SEQ ID NO:2); reverse 5′[…] 3′ (SEQ ID NO:3).
Cells were stained according to the manufacturer's instructions (Clontech). Briefly, cellswere washed with binding buffer and incubated with FITC-Annexin-V or EGFPAnnexin-V for 5–10 min and fixed with 4% paraformaldehyde.
Cells were fixed 10 min with 4% paraformaldehyde and stained according to the manufacturer's instructions (Promega).
The protein kinase inhibitors were added 30 min before SP exposure at the following concentrations: 10 μM Rp-8-Br-cAMPS (adenosin 3′,5′-cyclic monophosphorothioate, 8-bromo-, Rp-isomer, sodium salt) which is a PKA inhibitor; 50 nM Calphostin C, which is a PKC inhibitor; 10 μM PD 98059 which is a MAPKK (MEK) inhibitor. These compounds were obtained from Calbiochem. Viability was quantified by trypan blue staining of the total cell population.

[2] = tested on: 293T human embryonic kidney cells; assay: SP toxicity to untransfected 293T cells; type: cell-based; conditions: no endogenous NK1R, up to millimolar SP
Procedure: as §1

ERK-1/2 [3] = assay: Western blot of ERK-1/2 phosphorylation in 293T cells expressing NK1R; type: cell-based, human; conditions: 293T cells expressing the wild type NK1R, but not NK1Rd342
Procedure: (§2) For the transfected 293T cells, cells were washed with cold PBS after incubation with SP the time indicate and homogenized on lysis buffer (150 mM NaCl, 1% Triton X-100, 50 mM Tris HCL pH8.0). Cytoplasmic extracts were collected after 10 min centrifugation at 14,000 rcf. Total amount of protein was quantified by Bradford assay and electrophoresis of equal amounts of total protein was performed on SDS-polyacrylamide gels. Separated proteins were transferred to polyvinylidene fluoride membranes at 4° C. for Western blot analysis. Membranes were probed with a 1:1000 dilution of anti-ERK-1/2 or anti phospho-ERK-1/2 (BioSource). The blots were incubated in a horseradish peroxidase coupled secondary antibody for 1 h followed by enhanced chemiluminescence detection of the proteins with […]™ ECL detection (Amersham, Arlington Heights, Ill.). For striatal neurons, total ERK-1/2 was immunoprecipitated using superparamagnetic Microbeads conjugated to protein A, following manufacture's instructions (MACS, Miltenyi Biotec), and then developed by Western blot against either anti-ERK-1/2 or anti phospho-ERK-1/2.

ERK-1/2 [4] = assay: Western blot of ERK-1/2 phosphorylation in striatal neurons; type: cell-based, rat; conditions: after 10–30 min of SP stimulation; total ERK-1/2 unchanged
Procedure: as §2

total cellular cAMP = assay: cAMP quantification in 293T cells overexpressing NK1R; type: cell-based, human; conditions: compared with 10 μM forskolin
Procedure: Total cellular cAMP was measured using the BiotrakBIOTRAK™ non-acetylation enzymeimmunoassay system (Amersham Phramacia Biotech), following manufacturer's instructions. Forskolin (Sigma) was added at 10 μM.

SP: eleven amino acid neurotransmitter of the tachykinin family, ligand of NK1R
sensitivity of NK1R-transfected 293T cells to SP [1]: sensitive to SP at nanomolar concentrations
sensitivity of 293T cells to SP-induced cell death [2]: resistant
activation of ERK-1/2 by SP (ERK-1/2 [3]): activation of ERK-1/2
amount of phosphorylated ERK-1/2 (ERK-1/2 [4]): increase
production of cAMP in response to SP (total cellular cAMP): Neither the wild type nor the mutant NK1Rd342 overexpressed in 293T cells generated a significant amount of cAMP
